Test results: patent US10118930B2, “Piperidinylpyrazolopyrimidinones and their use” (BAYER PHARMA AKTIENGESELLSCHAFT, priority 2015, dated 2018)
Where a name gives a salt, the structure may show the parent alone.

Test system: clot lysis (fibrinolysis) in diluted human citrated plasma, tPA-induced
Experiment: Plasma-based clot lysis assay (5%)
Assay type: biochemical
Settings: human citrated platelet-poor plasma 5%, fibrinogen 3 μM, CaCl2 10 mM, tPA 0.2 nM, 37° C., OD at 405 nm
How it was run: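 Clot formation and breakdown triggered by CaCl2 (10 mM final) plus tPA (0.2 nM final) at 37° C, in 5% diluted human plasma supplemented with 3 μM fibrinogen (HEPES/NaCl/Brij buffer, pH 7). IC50 obtained from time courses relative to a blank control.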

**Q.** How did the IC50 turn out when `Cc1cc(CN(C)C(=O)c2cnn3c(C4CCNCC4)cc(=O)[nH]c23)no1` [Example 316, N-methyl-N-[(5-methyl-1,2-oxazol-3-yl)methyl]-5-oxo-7-(piperidin-4-yl)-4,5-dihydropyrazolo[1,5-a]pyrimidine-3-carboxamide hydrochloride] was run?
**A.** 27 nM

**Q.** With `CCC(c1ccc(OC)cc1)c1nc(-c2cnn3c(C4CCNCC4)cc(=O)[nH]c23)no1` (racemic) [Example 241, 3-{5-[rac-1-(4-methoxyphenyl)propyl]-1,2,4-oxadiazol-3-yl}-7-(piperidin-4-yl)pyrazolo[1,5-a]pyrimidin-5(4H)-one hydrochloride] as the molecule, how does the IC50 read?
**A.** 21 nM

**Q.** `Cc1nn2c(C3CCNCC3)cc(=O)[nH]c2c1C(=O)N1CC(C)CC(C)C1` (stereo not shown) [Example 421, 3-[(3,5-dimethyl-piperidin-1-yl)carbonyl]-2-methyl-7-(piperidin-4-yl) pyrazolo[1,5-a] pyrimidin-5(4H)-one hydrochloride] was tested. Which IC50 did it give?
**A.** 30 nM

**Q.** How did the IC50 turn out when `O=c1cc(C2CCNCC2)n2ncc(-c3nc(-c4cccc([N+](=O)[O-])c4)no3)c2[nH]1` [Example 205, 3-[3-(3-nitrophenyl)-1,2,4-oxadiazol-5-yl]-7-(piperidin-4-yl)pyrazolo[1,5-a]pyrimidin-5(4H)-one hydrochloride] was run?
**A.** 35 nM

**Q.** Which IC50 does the source give for `Cc1ccccc1Cc1noc(-c2cnn3c(C4CCNCC4)cc(=O)[nH]c23)n1` [Example 198, 3-[3-(2-methylbenzyl)-1,2,4-oxadiazol-5-yl]-7-(piperidin-4-yl)pyrazolo[1,5-a]pyrimidin-5(4H)-one hydrochloride] here?
**A.** 34 nM

**Q.** Which IC50 does the source give for `CC(C)(C)c1nnc(-c2cnn3c(C4CCNCC4)cc(=O)[nH]c23)o1` [Example 165, 3-(5-tert-butyl-1,3,4-oxadiazol-2-yl)-7-(piperidin-4-yl)pyrazolo[1,5-a]pyrimidin-5 (4H)-one hydrochloride] here?
**A.** 34 nM

**Q.** Which IC50 does the source give for `O=c1cc(C2CCNCC2)n2ncc(-c3ccccc3F)c2[nH]1` [Example 56, 3-(2-Fluorophenyl)-7-(piperidin-4-yl)pyrazolo[1,5-a]pyrimidin-5(4H)-one hydrochloride] here?
**A.** 770 nM

**Q.** With `NC(=S)c1cnn2c(C3CCNCC3)cc(=O)[nH]c12` [Example 287, 5-oxo-7-(piperidin-4-yl)-4,5-dihydropyrazolo[1,5-a]pyrimidine-3-carbothioamide hydrochloride] as the molecule, how does the IC50 read?
**A.** 37 nM

**Q.** For `CCOC(=O)c1c(C(F)(F)F)nn2c(C3CCNCC3)cc(=O)[nH]c12` [Example 458, Ethyl 5-oxo-7-(piperidin-4-yl)-2-(trifluoromethyl)-4,5-dihydropyrazolo[1,5-a]pyrimidine-3-carboxylate hydrochloride], which IC50 is on record?
**A.** 130 nM

**Q.** With `COc1ccc(OC)c(-c2cnn3c(C4CCNCC4)cc(=O)[nH]c23)c1` [Example 62, 3-(2,5-Dimethoxyphenyl)-7-(piperidin-4-yl)pyrazolo[1,5-a]pyrimidin-5(4H)-one hydrochloride] as the molecule, how does the IC50 read?
**A.** 34 nM

**Q.** With `Cc1noc(-c2cnn3c(C4CCNCC4)cc(=O)[nH]c23)n1` [Example 32, 3-(3-Methyl-1,2,4-oxadiazol-5-yl)-7-(piperidin-4-yl)pyrazolo[1,5-a]pyrimidin-5(4H)-one hydrochloride] as the molecule, how does the IC50 read?
**A.** 15 nM

**Q.** Which IC50 does the source give for `COc1ccc(C2(c3nc(-c4cnn5c(C6CCNCC6)cc(=O)[nH]c45)no3)CC2)cc1` [Example 245, 3-{5-[1-(4-methoxyphenyl)cyclopropyl]-1,2,4-oxadiazol-3-yl}-7-(piperidin-4-yl)pyrazolo[1,5-a]pyrimidin-5(4H)-one hydrochloride] here?
**A.** 29 nM

**Q.** For `CC(C)Oc1ccc(Cc2nc(-c3cnn4c(C5CCNCC5)cc(=O)[nH]c34)no2)cc1` [Example 252, 7-(piperidin-4-yl)-3-{5-[4-(propan-2-yloxy)benzyl]-1,2,4-oxadiazol-3-yl}pyrazolo[1,5-a]pyrimidin-5(4H)-one hydrochloride], which IC50 is on record?
**A.** 24 nM

**Q.** With `COCc1nc(-c2cnn3c(C4CCNCC4)cc(=O)[nH]c23)no1` [Example 394, 3-(5-(methoxymethyl)-1,2,4-oxadiazol-3-yl)-7-(piperidin-4-yl)pyrazolo[1,5-a]pyrimidin-5(4H)-one hydrochloride] as the molecule, how does the IC50 read?
**A.** 29 nM

**Q.** Which IC50 does the source give for `NC(=O)CCNC(=O)c1cnn2c(C3CCNCC3)cc(=O)[nH]c12` [Example 89, N-(3-amino-3-oxopropyl)-5-oxo-7-(piperidin-4-yl)-4,5-dihydropyrazolo[1,5-a]pyrimidine-3-carboxamide hydrochloride] here?
**A.** 140 nM

**Q.** For `CSc1nn2c(C3CCNCC3)cc(=O)[nH]c2c1C(=O)O` [Example 469, 2-(methylsulfanyl)-5-oxo-7-(piperidin-4-yl)-4,5-dihydropyrazolo[1,5-a]pyrimidine-3-carboxylic acid hydrochloride], which IC50 is on record?
**A.** 160 nM

**Q.** `O=c1cc(C2CCNCC2)n2ncc(-c3nc(-c4ccc(C(F)(F)F)c(F)c4)no3)c2[nH]1` [Example 134, 3-{3-[3-Fluoro-4-(trifluoromethyl)phenyl]-1,2,4-oxadiazol-5-yl}-7-(piperidin-4-yl)pyrazolo[1,5-a]pyrimidin-5(4H)-one hydrochloride] was tested. Which IC50 did it give?
**A.** 43 nM

**Q.** `O=c1cc(C2CCNCC2)n2ncc(-c3nnc(-c4ccccc4C(F)(F)F)o3)c2[nH]1` [Example 172, 7-(piperidin-4-yl)-3-{5-[2-(trifluoromethyl)phenyl]-1,3,4-oxadiazol-2-yl}pyrazolo[1,5-a]pyrimidin-5(4H)-one hydrochloride] was tested. Which IC50 did it give?
**A.** 59 nM

**Q.** With `Cc1nn2c(C3CCNCC3)cc(=O)[nH]c2c1C(=O)N1CCC(F)(F)C1` [Example 429, 3-[(3,3-difluoro-pyrrolidin-1-yl)carbonyl]-2-methyl-7-(piperidin-4-yl) pyrazolo[1,5-a] pyrimidin-5(4H)-one hydrochloride] as the molecule, how does the IC50 read?
**A.** 30 nM

**Q.** How did the IC50 turn out when `COCc1nn2c(C3CCNCC3)cc(=O)[nH]c2c1-c1ccc(OC)cc1` [Example 3, 2-(Methoxymethyl)-3-(4-methoxyphenyl)-7-(piperidin-4-yl)pyrazolo[1,5-a]pyrimidin-5 (4H)-one hydrochloride] was run?
**A.** 33 nM

**Q.** With `Cc1nn2c(C3CCNCC3)cc(=O)[nH]c2c1-c1nc(Cc2ccccc2Cl)no1` [Example 439, 3-[3-(2-chlorobenzyl)-1,2,4-oxadiazol-5-yl]-2-methyl-7-(piperidin-4-yl)pyrazolo[1,5-a]pyrimidin-5(4H)-one hydrochloride] as the molecule, how does the IC50 read?
**A.** 26 nM

**Q.** Which IC50 does the source give for `O=c1cc(C2CCNCC2)n2ncc(-c3nc(Cc4ccc(Cl)cc4)no3)c2[nH]1` [Example 210, 3-[3-(4-chlorobenzyl)-1,2,4-oxadiazol-5-yl]-7-(piperidin-4-yl)pyrazolo[1,5-a]pyrimidin-5(4H)-one hydrochloride] here?
**A.** 34 nM

**Q.** Which IC50 does the source give for `CCCc1noc(-c2cnn3c(C4CCNCC4)cc(=O)[nH]c23)n1` [Example 34, 7-(Piperidin-4-yl)-3-(3-propyl-1,2,4-oxadiazol-5-yl)pyrazolo[1,5-a]pyrimidin-5(4H)-one hydrochloride] here?
**A.** 12 nM

**Q.** Which IC50 does the source give for `C[C@H]1C[C@H](c2cc(=O)[nH]c3c(C#N)cnn23)CCN1` [Example 65, (−)-trans-7-(2-Methylpiperidin-4-yl)-5-oxo-4,5-dihydropyrazolo[1,5-a]pyrimidine-3-carbonitrile trifluoroacetate] here?
**A.** 12 nM

**Q.** For `COc1ccc(Cc2nnc(-c3cnn4c(C5CCNCC5)cc(=O)[nH]c34)o2)cc1F` [Example 447, 3-[5-(3-fluoro-4-methoxybenzyl)-1,3,4-oxadiazol-2-yl]-7-(piperidin-4-yl)pyrazolo[1,5-a]pyrimidin-5(4H)-one hydrochloride], which IC50 is on record?
**A.** 14 nM

**Q.** Which IC50 does the source give for `O=c1cc(C2CCNCC2)n2ncc(-c3noc(CC(F)(F)F)n3)c2[nH]1` [Example 388, 7-(Piperidin-4-yl)-3-[5-(2,2,2-trifluoroethyl)-1,2,4-oxadiazol-3-yl]pyrazolo[1,5-a]pyrimidin-5(4H)-one hydrochloride] here?
**A.** 30 nM

**Q.** `COc1ccccc1-c1nc(-c2cnn3c(C4CCNCC4)cc(=O)[nH]c23)no1` [Example 219, 3-[5-(2-methoxyphenyl)-1,2,4-oxadiazol-3-yl]-7-(piperidin-4-yl)pyrazolo[1,5-a]pyrimidin-5(4H)-one hydrochloride] was tested. Which IC50 did it give?
**A.** 35 nM

**Q.** How did the IC50 turn out when `Cc1cc(F)ccc1NC(=O)c1cnn2c(C3CCNCC3)cc(=O)[nH]c12` [Example 81, N-(4-fluoro-2-methylphenyl)-5-oxo-7-(piperidin-4-yl)-4,5-dihydropyrazolo[1,5-a]pyrimidine-3-carboxamide] was run?
**A.** 81 nM

**Q.** For `O=c1cc(C2CCNCC2)n2ncc(-c3ccc(C(F)(F)F)cc3)c2[nH]1` [Example 57, 7-(Piperidin-4-yl)-3-[4-(trifluoromethyl)phenyl]pyrazolo[1,5-a]pyrimidin-5(4H)-one hydrochloride], which IC50 is on record?
**A.** 21 nM

**Q.** `COc1ccc(C2(c3nnc(-c4cnn5c(C6CCNCC6)cc(=O)[nH]c45)o3)CC2)cc1` [Example 305, 3-{5-[1-(4-methoxyphenyl)cyclopropyl]-1,3,4-oxadiazol-2-yl}-7-(piperidin-4-yl)pyrazolo[1,5-a]pyrimidin-5(4H)-one hydrochloride] was tested. Which IC50 did it give?
**A.** 20 nM

**Q.** For `Cc1nn2c(C3CCNCC3)cc(=O)[nH]c2c1C(=O)N1CCC(C)CC1` [Example 416, 2-methyl-3-[(4-methyl-piperidin-1-yl)carbonyl]-7-(piperidin-4-yl) pyrazolo[1,5-a] pyrimidin-5(4H)-one hydrochloride], which IC50 is on record?
**A.** 31 nM

**Q.** For `NC(=O)c1cnn2c(C3CCNCC3)cc(=O)[nH]c12` [Example 14, 5-Oxo-7-(piperidin-4-yl)-4,5-dihydropyrazolo[1,5-a]pyrimidine-3-carboxamide hydrochloride], which IC50 is on record?
**A.** 24 nM

**Q.** `CC(C)(C)c1cnc(-c2cnn3c(C4CCNCC4)cc(=O)[nH]c23)o1` [Example 332, 3-(5-tert-butyl-1,3-oxazol-2-yl)-7-(piperidin-4-yl)pyrazolo[1,5-a]pyrimidin-5 (4H)-one hydrochloride] was tested. Which IC50 did it give?
**A.** 26 nM

**Q.** For `C=C(C)c1cnn2c(C3CCNCC3)cc(=O)[nH]c12` [Example 449, 7-(piperidin-4-yl)-3-(prop-1-en-2-yl)pyrazolo[1,5-a]pyrimidin-5 (4H)-one hydrochloride], which IC50 is on record?
**A.** 55 nM
